# Measured values: patent publication US20250206730A1 (AUTOTELIC BIO INC., priority 2022, published 2025)
# Columns and labels:
# ALK5 kinase = target: T1, ALK5 kinase (Homo sapiens, UniProt P36897); assay: LanthaScreen Eu Kinase Binding Assay; settings: Kinase Tracer 178, Eu-anti-GST Antibody, read-out: IC50 Enzyme
# T1 sequence (P36897 34-503): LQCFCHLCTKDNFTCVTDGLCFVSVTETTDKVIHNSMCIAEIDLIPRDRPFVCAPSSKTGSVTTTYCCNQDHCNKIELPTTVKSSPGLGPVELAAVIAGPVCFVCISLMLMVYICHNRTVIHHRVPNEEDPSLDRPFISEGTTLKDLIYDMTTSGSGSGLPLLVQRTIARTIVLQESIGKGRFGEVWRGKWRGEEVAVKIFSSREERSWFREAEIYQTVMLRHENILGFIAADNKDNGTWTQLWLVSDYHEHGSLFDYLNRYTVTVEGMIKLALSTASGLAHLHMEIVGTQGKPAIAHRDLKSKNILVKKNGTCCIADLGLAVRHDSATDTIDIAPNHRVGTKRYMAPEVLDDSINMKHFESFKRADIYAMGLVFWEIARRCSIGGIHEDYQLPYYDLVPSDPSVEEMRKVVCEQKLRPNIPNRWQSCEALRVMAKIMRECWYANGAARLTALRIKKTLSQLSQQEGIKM
# Summary of the method: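 Tracer-displacement TR-FRET: after 30 min RT compound–kinase preincubation, Eu-labelled anti-GST antibody plus Kinase Tracer 178 were incubated 60 min at RT. Binding was read as a lower 665 nm/615 nm emission ratio (excitation 340 nm).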
# TGF-β signaling = assay: Assay for evaluating cellular inhibition of TGF-β signaling, 4T1 (SBE-luc2P) luciferase reporter; format: cell-based; settings: Mus musculus, 4T1, 4T1 (SBE-luc2P) transient pool, 0.2% FBS, 2 h pre-treatment, TGF-β1 2 ng/mL 24 h; read-out: IC50 4T1 Cell
# Summary of the method: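 Luminescence from SMAD-binding-element luciferase was measured after 24 h of 2 ng/mL TGF-β1 at 37 °C, following 2 h compound pre-treatment. HEK293 stable reporter cells were used at 2.5×10^4/well in 0.5% FBS (~80% confluent); the 4T1 SBE-luc2P transient pool at 6×10^3/well in 0.2% FBS (~60% confluent).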
Compound,IC50 (ALK5 kinase) [nM],IC50 (TGF-β signaling) [nM]
"CNC(=O)c1ccc(Nc2cc(Oc3sc(C4CCCCC4)nc3-c3ccccc3)ccn2)nc1 [A-180, 6-((4-((2-Cyclohexyl-4-phenylthiazol-5-yl)oxy)pyridin-2-yl)amino)-N-methylnicotinamide]",> 100,> 100
"CCc1nc(-c2ccccc2)c(Oc2ccnc(Nc3cccc(S(N)(=O)=O)c3)c2)s1 [A-181, 3-((4-((2-Ethyl-4-phenylthiazol-5-yl)oxy)pyridin-2-yl)amino)benzenesulfonamide]",< 100,< 100
"CCc1nc(-c2ccccc2)c(Oc2ccnc(Nc3cccc(C(C)(C)O)c3)c2)s1 [A-182, 2-(3-((4-((2-Ethyl-4-phenylthiazol-5-yl)oxy)pyridin-2-yl)amino)phenyl)propan-2-ol]",< 100,> 100
"CCc1nc(-c2ccccc2)c(Oc2ccnc(Nc3cccc(C(N)=O)c3)c2)s1 [A-183, 3-((4-((2-Ethyl-4-phenylthiazol-5-yl)oxy)pyridin-2-yl)amino)benzamide]",< 100,< 100
"CCc1nc(-c2ccccc2)c(Oc2ccnc(Nc3ccc(S(N)(=O)=O)cc3)c2)s1 [A-184, 4-((4-((2-Ethyl-4-phenylthiazol-5-yl)oxy)pyridin-2-yl)amino)benzenesulfonamide]",< 100,> 100
"CCc1nc(-c2ccccc2)c(Oc2ccnc(Nc3ccc(C(N)=O)cc3)c2)s1 [A-185, 4-((4-((2-Ethyl-4-phenylthiazol-5-yl)oxy)pyridin-2-yl)amino)benzamide]",< 100,> 100
"CCc1nc(-c2ccccc2)c(Oc2ccnc(Nc3ccnc(C(C)(C)O)c3)c2)s1 [A-186, 2-(4-((4-((2-Ethyl-4-phenylthiazol-5-yl)oxy)pyridin-2-yl)amino)pyridin-2-yl)propan-2-ol]",< 100,< 100
"CCc1nc(-c2ccccc2)c(Oc2ccnc(Nc3ccc(C(C)(C)O)nc3)c2)s1 [A-187, 2-(5-((4-((2-Ethyl-4-phenylthiazol-5-yl)oxy)pyridin-2-yl)amino)pyridin-2-yl)propan-2-ol]",< 100,> 100
"CCc1nc(-c2ccccc2)c(Oc2ccnc(Nc3cccc(NS(=O)(=O)CC)c3)c2)s1 [A-188, N-(3-((4-((2-Ethyl-4-phenylthiazol-5-yl)oxy)pyridin-2-yl)amino)phenyl)ethanesulfonamide]",< 100,< 100
"CCc1nc(-c2ccccc2)c(Oc2ccnc(Nc3ccc(C(=O)NC)cc3)c2)s1 [A-189, 4-((4-((2-Ethyl-4-phenylthiazol-5-yl)oxy)pyridin-2-yl)amino)-N-methylbenzamide]",< 100,< 100
"CCc1nc(-c2ccccc2)c(Oc2ccnc(Nc3ccc(C(N)=O)cn3)c2)s1 [A-190, 6-((4-((2-Ethyl-4-phenylthiazol-5-yl)oxy)pyridin-2-yl)amino)nicotinamide]",< 100,< 100
"CCc1nc(-c2ccccc2)c(Oc2ccnc(Nc3ccc(C(=O)O)cn3)c2)s1 [A-192, 6-((4-((2-Ethyl-4-phenylthiazol-5-yl)oxy)pyridin-2-yl)amino)nicotinic acid]",< 100,< 100
"CCc1nc(-c2ccccc2)c(Oc2ccnc(Nc3ccc(C(=O)NC)cn3)c2)s1 [A-193, 6-((4-((2-Ethyl-4-phenylthiazol-5-yl)oxy)pyridin-2-yl)amino)-N-methylnicotinamide]",< 100,< 100
"CCc1nc(-c2ccccc2)c(Oc2ccnc(Nc3cccc(C(=O)O)c3)c2)s1 [A-194, 3-((4-((2-Ethyl-4-phenylthiazol-5-yl)oxy)pyridin-2-yl)amino)benzoic acid]",< 100,> 100
"CCc1nc(-c2ccccc2)c(Oc2ccnc(Nc3ccc(C(=O)O)cc3)c2)s1 [A-195, 4-((4-((2-Ethyl-4-phenylthiazol-5-yl)oxy)pyridin-2-yl)amino)benzoic acid]",< 100,< 100
"CC(C)c1nc(-c2ccccc2)c(Oc2ccnc(Nc3cccc(C(=O)O)n3)c2)s1 [A-217, 6-((4-((2-Isopropyl-4-phenylthiazol-5-yl)oxy)pyridin-2-yl)amino)picolinic acid]",> 100,> 100
"CC(C)c1nc(-c2ccccc2)c(Oc2ccnc(Nc3cccc(S(N)(=O)=O)c3)c2)s1 [A-218, 3-((4-((2-Isopropyl-4-phenylthiazol-5-yl)oxy)pyridin-2-yl)amino)benzenesulfonamide]",> 100,> 100

Compound,IC50 (ALK5 kinase) [nM],IC50 (TGF-β signaling) [nM]
"CC(C)c1nc(-c2ccccc2)c(Oc2ccnc(Nc3cccc(C(C)(C)O)c3)c2)s1 [A-219, 2-(3-((4-((2-Isopropyl-4-phenylthiazol-5-yl)oxy)pyridin-2-yl)amino)phenyl)propan-2-ol]",> 100,> 100
"CC(C)c1nc(-c2ccccc2)c(Oc2ccnc(Nc3cccc(C(N)=O)c3)c2)s1 [A-220, 3-((4-((2-Isopropyl-4-phenylthiazol-5-yl)oxy)pyridin-2-yl)amino)benzamide]",< 100,> 100
"CC(C)c1nc(-c2ccccc2)c(Oc2ccnc(Nc3ccc(S(N)(=O)=O)cc3)c2)s1 [A-221, 4-((4-((2-Isopropyl-4-phenylthiazol-5-yl)oxy)pyridin-2-yl)amino)benzenesulfonamide]",< 100,> 100
"CC(C)c1nc(-c2ccccc2)c(Oc2ccnc(Nc3ccc(C(N)=O)cc3)c2)s1 [A-222, 4-((4-((2-Isopropyl-4-phenylthiazol-5-yl)oxy)pyridin-2-yl)amino)benzamide]",> 100,> 100
"CC(C)c1nc(-c2ccccc2)c(Oc2ccnc(Nc3ccnc(C(C)(C)O)c3)c2)s1 [A-223, 2-(4-((4-((2-Isopropyl-4-phenylthiazol-5-yl)oxy)pyridin-2-yl)amino)pyridin-2-yl)propan-2-ol]",< 100,> 100
"CC(C)c1nc(-c2ccccc2)c(Oc2ccnc(Nc3ccc(C(C)(C)O)nc3)c2)s1 [A-224, 2-(5-((4-((2-Isopropyl-4-phenylthiazol-5-yl)oxy)pyridin-2-yl)amino)pyridin-2-yl)propan-2-ol]",< 100,> 100
"CNC(=O)c1cccc(Nc2cc(Oc3sc(C(C)C)nc3-c3ccccc3)ccn2)n1 [A-225, 6-((4-((2-Isopropyl-4-phenylthiazol-5-yl)oxy)pyridin-2-yl)amino)-N-methylpicolinamide]",< 100,< 100
"CC(C)c1nc(-c2ccccc2)c(Oc2ccnc(Nc3cccc(C(N)=O)n3)c2)s1 [A-226, 6-((4-((2-Isopropyl-4-phenylthiazol-5-yl)oxy)pyridin-2-yl)amino)picolinamide]",< 100,> 100
"CC(C)c1nc(-c2ccccc2)c(Oc2ccnc(Nc3ccc(C(N)=O)cn3)c2)s1 [A-227, 6-((4-((2-Isopropyl-4-phenylthiazol-5-yl)oxy)pyridin-2-yl)amino)nicotinamide]",< 100,< 100
"CNC(=O)c1ccc(Nc2cc(Oc3sc(C(C)C)nc3-c3ccccc3)ccn2)nc1 [A-228, 6-((4-((2-Isopropyl-4-phenylthiazol-5-yl)oxy)pyridin-2-yl)amino)-N-methylnicotinamide]",< 100,< 100
"CNC(=O)c1ccc(Nc2cc(Oc3sc(C(C)C)nc3-c3ccccc3)ccn2)cc1 [A-229, 4-((4-((2-Isopropyl-4-phenylthiazol-5-yl)oxy)pyridin-2-yl)amino)-N-methylbenzamide]",< 100,> 100
"CC(C)c1nc(-c2ccccc2)c(Oc2ccnc(Nc3cccc(C(=O)O)c3)c2)s1 [A-230, 3-((4-((2-Isopropyl-4-phenylthiazol-5-yl)oxy)pyridin-2-yl)amino)benzoic acid]",< 100,> 100
"CC(C)c1nc(-c2ccccc2)c(Oc2ccnc(Nc3ccc(C(=O)O)cc3)c2)s1 [A-231, 4-((4-((2-Isopropyl-4-phenylthiazol-5-yl)oxy)pyridin-2-yl)amino)benzoic acid]",< 100,< 100
"CC(C)c1nc(-c2ccccc2)c(Oc2ccnc(Nc3ccc(C(=O)O)cn3)c2)s1 [A-232, 6-((4-((2-Isopropyl-4-phenylthiazol-5-yl)oxy)pyridin-2-yl)amino)nicotinic acid]",< 100,< 100
"CNc1nc(-c2ccc3ccccc3c2)c(Oc2ccnc(Nc3cccc(S(N)(=O)=O)c3)c2)s1 [A-233, 3-((4-((2-(Methylamino)-4-(naphthalen-2-yl)thiazol-5-yl)oxy)pyridin-2-yl)amino)benzenesulfonamide]",> 100,> 100
"Nc1nc(-c2ccc3ccccc3c2)c(Oc2ccnc(Nc3cccc(S(N)(=O)=O)c3)c2)s1 [A-234, 3-((4-((2-Amino-4-(naphthalen-2-yl)thiazol-5-yl)oxy)pyridin-2-yl)amino)benzenesulfonamide]",> 100,> 100
